target: Thymidylate synthase (Mus musculus) (UniProt P07607); experiment: Inhibition of thymidylate synthetase in mouse L1210S cells; assay type: cell-based; settings: not given
Sequence (P07607 whole entry, looked up): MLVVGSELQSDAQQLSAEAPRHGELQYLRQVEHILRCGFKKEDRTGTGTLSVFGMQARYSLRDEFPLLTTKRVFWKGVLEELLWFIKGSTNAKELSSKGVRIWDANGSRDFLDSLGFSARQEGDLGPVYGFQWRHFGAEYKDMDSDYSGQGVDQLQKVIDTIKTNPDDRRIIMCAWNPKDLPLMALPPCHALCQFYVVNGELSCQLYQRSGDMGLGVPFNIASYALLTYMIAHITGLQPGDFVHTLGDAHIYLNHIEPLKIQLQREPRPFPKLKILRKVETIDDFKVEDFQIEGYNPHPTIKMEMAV

| log(1/I50) | SMILES |
| --- | --- |
| 6.6 | Cc1c(NCc2ccc(C(=O)NC(CCC(=O)O)C(=O)O)cc2)ccc2nc(N)nc(N)c12 (stereo not drawn) |

target: T1, Thymidylate synthase (Lactobacillus casei) (UniProt P00469); experiment: Inhibition of thymidylate synthetase in Lactobacillus casei; settings: Lacticaseibacillus casei
T1 sequence (whole entry): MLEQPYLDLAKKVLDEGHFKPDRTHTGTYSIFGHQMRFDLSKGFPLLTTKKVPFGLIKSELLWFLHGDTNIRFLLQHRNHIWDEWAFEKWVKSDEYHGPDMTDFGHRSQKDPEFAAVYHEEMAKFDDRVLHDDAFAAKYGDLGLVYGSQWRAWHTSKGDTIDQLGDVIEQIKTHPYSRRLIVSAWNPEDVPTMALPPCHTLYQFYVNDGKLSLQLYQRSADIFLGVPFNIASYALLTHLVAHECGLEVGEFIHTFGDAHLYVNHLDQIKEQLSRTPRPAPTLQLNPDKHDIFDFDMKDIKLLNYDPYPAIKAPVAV

| log(1/I50) | SMILES |
| --- | --- |
| 5.6 | Cc1c(NCc2ccc(C(=O)NC(CCC(=O)O)C(=O)O)cc2)ccc2nc(N)nc(N)c12 (stereo not drawn) |

target: T2, Dihydrofolate reductase (Mus musculus) (UniProt P00375); experiment: Inhibition of dihydrofolate reductase in mouse L1210R cells; assay type: cell-based; settings: not given
T2 sequence (whole entry): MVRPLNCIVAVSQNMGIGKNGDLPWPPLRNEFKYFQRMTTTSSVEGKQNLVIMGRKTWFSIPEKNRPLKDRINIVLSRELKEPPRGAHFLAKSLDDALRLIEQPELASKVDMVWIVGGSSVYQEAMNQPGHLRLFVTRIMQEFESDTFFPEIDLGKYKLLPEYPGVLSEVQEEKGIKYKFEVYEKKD

| log(1/I50) | SMILES |
| --- | --- |
| 8.37 | Nc1nc(N)c2cc(CNc3ccc(Cl)c(C(=O)NC(CC(=O)O)C(=O)O)c3)ccc2n1 (stereo not drawn) |
| 8 | Nc1nc(N)c2cc(CNc3cccc(Cl)c3)ccc2n1 |
| 8.92 | COc1cc(NCc2ccc3nc(N)nc(N)c3c2C)cc(OC)c1OC |
| 9.05 | Nc1nc(N)c2c(Cl)c(CNc3ccc(C(=O)NC(CCC(=O)O)C(=O)O)cc3)ccc2n1 (stereo not drawn) |
| 8.03 | Nc1nc(N)c2cc(CNc3ccc(Cl)c(C(=O)NC(CCC(=O)O)C(=O)O)c3)ccc2n1 (stereo not drawn) |
| 8.66 | CN(Cc1ccc2nc(N)nc(N)c2c1)c1ccc(C(=O)NC(CC(=O)O)C(=O)O)cc1 (stereo not drawn) |
| 8.14 | Nc1nc(N)c2cc(CNc3ccc(C(=O)NC(CC(=O)O)CC(=O)O)cc3)ccc2n1 |
| 7.36 | Nc1nc(N)c2cc(NCc3ccc(C(=O)NC(CC(=O)O)C(=O)O)cc3)ccc2n1 (stereo not drawn) |
| 7.67 | Nc1nc(N)c2cc(Oc3ccc(CNc4ccc(C(=O)NC(CC(=O)O)C(=O)O)cc4)cc3)ccc2n1 (stereo not drawn) |
| 8 | Nc1nc(N)c2cc(CN(N=O)c3ccc(Cl)c(Cl)c3)ccc2n1 |
| 8.76 | Nc1nc(N)c2cc(CNc3ccc(C(=O)NC(CC(=O)O)C(=O)O)cc3)ccc2n1 (stereo not drawn) |
| 8.81 | Nc1nc(N)c2cc(CNc3ccc(C(=O)NC(C(=O)O)C(=O)O)cc3)ccc2n1 |

The remaining lines, values behind:

| SMILES | log(1/I50) |
| --- | --- |
| Nc1nc(N)c2cc(Oc3ccc(CNc4ccc(C(=O)NC(CCC(=O)O)C(=O)O)cc4)cc3)ccc2n1 (stereo not drawn) | 7.71 |
| Nc1nc(N)c2cc(CNc3ccc(Cl)c(Cl)c3)ccc2n1 | 8.05 |
| Nc1nc(N)c2cc(CNc3ccc(C(=O)NC(CC(=O)O)C(=O)O)cc3Cl)ccc2n1 (stereo not drawn) | 9.13 |
| Cc1c(CNc2ccc(Cl)c(C(=O)NC(CCC(=O)O)C(=O)O)c2)ccc2nc(N)nc(N)c12 (stereo not drawn) | 8.68 |
| Nc1nc(N)c2cc(CNc3ccc(Cl)cc3)ccc2n1 | 8.3 |
| Nc1nc(N)c2c(Cl)c(CNc3ccc(Cl)c(Cl)c3)ccc2n1 | 8.7 |
| Nc1nc(N)c2cc(CNc3cccc(Br)c3)ccc2n1 | 8.64 |
| Nc1nc(N)c2c(Cl)c(CNc3ccc(C(=O)NC(CC(=O)O)C(=O)O)cc3)ccc2n1 (stereo not drawn) | 9.21 |
| Nc1nc(N)c2cc(CNc3cc(C(=O)NC(CC(=O)O)C(=O)O)ccc3Cl)ccc2n1 (stereo not drawn) | 8.54 |
| NC(=O)CCC(NC(=O)c1ccc(NCc2ccc3nc(N)nc(N)c3c2)cc1)C(=O)O (stereo not drawn) | 9.66 |
| Cc1c(CNc2cccc(Br)c2)ccc2nc(N)nc(N)c12 | 8.82 |
| Cc1c(CNc2ccc(C(=O)NC(CC(=O)O)CC(=O)O)cc2)ccc2nc(N)nc(N)c12 | 9.15 |

target: T3, Dihydrofolate reductase (Homo sapiens) (UniProt P00374); settings: not given
T3 sequence (whole entry): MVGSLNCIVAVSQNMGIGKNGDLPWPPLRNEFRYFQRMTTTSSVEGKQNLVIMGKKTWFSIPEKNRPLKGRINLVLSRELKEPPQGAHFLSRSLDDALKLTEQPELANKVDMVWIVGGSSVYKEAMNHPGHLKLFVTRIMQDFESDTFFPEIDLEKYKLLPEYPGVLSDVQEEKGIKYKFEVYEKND

| log(1/I50) | SMILES |
| --- | --- |
| 7.92 | Nc1nc(N)c2cc(CNc3ccc(Cl)c(C(=O)NC(CC(=O)O)C(=O)O)c3)ccc2n1 (stereo not drawn) |
| 8 | Nc1nc(N)c2cc(CNc3cccc(Cl)c3)ccc2n1 |
| 8.89 | COc1cc(NCc2ccc3nc(N)nc(N)c3c2C)cc(OC)c1OC |
| 9.11 | Nc1nc(N)c2c(Cl)c(CNc3ccc(C(=O)NC(CCC(=O)O)C(=O)O)cc3)ccc2n1 (stereo not drawn) |
| 6.7 | Nc1nc(N)c2cc(CNc3ccc(Cl)c(C(=O)NC(CCC(=O)O)C(=O)O)c3)ccc2n1 (stereo not drawn) |
| 8.69 | CN(Cc1ccc2nc(N)nc(N)c2c1)c1ccc(C(=O)NC(CC(=O)O)C(=O)O)cc1 (stereo not drawn) |
| 8.3 | CN(Cc1ccc2nc(N)nc(N)c2c1)c1ccc(Cl)c(Cl)c1 |
| 7.3 | CC(=O)N(Cc1ccc2nc(N)nc(N)c2c1)c1ccc(Cl)c(Cl)c1 |
| 8 | Cc1c(CN(N=O)c2ccc(Cl)c(Cl)c2)ccc2nc(N)nc(N)c12 |
| 8.25 | Nc1nc(N)c2cc(CNc3ccc(C(=O)NC(CC(=O)O)CC(=O)O)cc3)ccc2n1 |
| 8.22 | COc1cc(NCc2ccc3nc(N)nc(N)c3c2)cc(OC)c1OC |
| 7.77 | Nc1nc(N)c2cc(Oc3ccc(CNc4ccc(C(=O)NC(CC(=O)O)C(=O)O)cc4)cc3)ccc2n1 (stereo not drawn) |
| 8 | Nc1nc(N)c2cc(CN(N=O)c3ccc(Cl)c(Cl)c3)ccc2n1 |
| 8.94 | Nc1nc(N)c2cc(CNc3ccc(C(=O)NC(CC(=O)O)C(=O)O)cc3)ccc2n1 (stereo not drawn) |
| 9.1 | Nc1nc(N)c2cc(CNc3ccc(C(=O)NC(C(=O)O)C(=O)O)cc3)ccc2n1 |

The next lines start with the molecule.

| SMILES | log(1/I50) |
| --- | --- |
| Nc1nc(N)c2cc(Oc3ccc(CNc4ccc(C(=O)NC(CCC(=O)O)C(=O)O)cc4)cc3)ccc2n1 (stereo not drawn) | 7.8 |
| Cc1c(CNc2ccc(C(=O)NC(CCC(=O)O)C(=O)O)cc2)ccc2nc(N)nc(N)c12 (stereo not drawn) | 8.78 |
| Nc1nc(N)c2cc(CNc3ccc(Cl)c(Cl)c3)ccc2n1 | 8.42 |
| Nc1nc(N)c2cc(CNc3ccc(C(=O)NC(CC(=O)O)C(=O)O)cc3Cl)ccc2n1 (stereo not drawn) | 8.82 |
| Nc1nc(N)c2cc(CNc3ccc(Cl)c(C(F)(F)F)c3)ccc2n1 | 8.4 |
| Cc1c(CNc2ccc(Cl)c(C(=O)NC(CCC(=O)O)C(=O)O)c2)ccc2nc(N)nc(N)c12 (stereo not drawn) | 8.52 |
| Nc1nc(N)c2cc(CNc3ccc(Cl)cc3)ccc2n1 | 8.22 |
| Nc1nc(N)c2c(Cl)c(CNc3ccc(Cl)c(Cl)c3)ccc2n1 | 8.96 |
| Nc1nc(N)c2cc(CNc3cccc(Br)c3)ccc2n1 | 8.66 |
| Nc1nc(N)c2c(Cl)c(CNc3ccc(C(=O)NC(CC(=O)O)C(=O)O)cc3)ccc2n1 (stereo not drawn) | 9.35 |
| Cc1c(CNc2ccc(Cl)c(Cl)c2)ccc2nc(N)nc(N)c12 | 8.59 |
| Nc1nc(N)c2cc(CNc3cc(C(=O)NC(CC(=O)O)C(=O)O)ccc3Cl)ccc2n1 (stereo not drawn) | 8.52 |
| NC(=O)CCC(NC(=O)c1ccc(NCc2ccc3nc(N)nc(N)c3c2)cc1)C(=O)O (stereo not drawn) | 10.1 |
| Cc1c(CNc2cccc(Br)c2)ccc2nc(N)nc(N)c12 | 8.82 |
| Nc1nc(N)c2cc(CN(C=O)c3ccc(C(=O)NC(CCC(=O)O)C(=O)O)cc3)ccc2n1 (stereo not drawn) | 8.22 |
| Cc1c(CNc2ccc(C(=O)NC(CC(=O)O)CC(=O)O)cc2)ccc2nc(N)nc(N)c12 | 8.17 |
| Cc1c(NCc2ccc(C(=O)NC(CCC(=O)O)C(=O)O)cc2)ccc2nc(N)nc(N)c12 (stereo not drawn) | 9.07 |

Source: ChEMBL document CHEMBL3227974, “Multivariate analysis and quantitative structure-activity relationships. Inhibition of dihydrofolate reductase and thymidylate synthetase by quinazolines” (J Med Chem, 1979)
